This note sets out measurements from US20180147177A1, “Antibacterial Compositions Comprising Copper Oxo-Hydroxide Nanoparticles and Their Uses as Biocidal Agents” (Medical Research Council, priority 2015, published 2018).

In data set [1] the test system is Human dermal fibroblast cells (cell line CCD-25SK). The experiment in a line: Cell proliferation of skin fibroblasts (IncuCyte confluence AUC). The class given is cell-based. The conditions noted are these: CCD-25Sk skin fibroblasts, 48 hours. As to the method:
CuCl2 and AgNO3 were also tested in parallel as positive controls. Percentage of cell confluence was determined experimentally using an IncuCyte Zoom and plotted overtime to determine the area under the curve (AUC) for each concentration tested. Cell proliferation was used as an indication for cell toxicity and was determined by normalising the AUC of cells exposed to the testing compounds against those of cells growing at normal rates (control).

The next data set concerns P. aeruginosa. Briefly: Minimum bactericidal concentration (liquid incubation, then agar plates). It counts as cell-based. The conditions noted are these: n = 1.
A short description of data set [2]: Copper dispersibility in MOPS buffer pH 7.4. The class given is physicochemical. The conditions noted are these: MOPS buffer pH 7.4±0.2, copper added up to 500 ppm. As to the method: Stock copper materials were diluted in 50 mM 3-(N-morpholino)propanesulfonic acid (MOPS) buffer at pH 7.4±0.2. Final copper concentrations varied between 10 and 500 ppm. Microparticulate copper was removed by centrifugation at 16000 g for 5 minutes. Total copper and supernatant (i.e. disperse fraction) were analysed by Inductively Coupled Plasma-Optical Emission Spectroscopy (ICP-OES) as described in section 2.4.1.

Data set [3] in a line: Copper release from a gel matrix (HEC gel release assay). The conditions noted are these: HEC gel with 250 ppm Cu, bicarbonate solution pH 7, over 24 hours. It counts as physicochemical.
Protocol: This assay consisted of exposing the copper-containing HEC—with specific surface area (7.1 cm^2)—to a bicarbonate buffered solution at pH 7.0±0.2, following copper concentration over time.
10 g of the gel was poured into a 50 ml falcon tube and let settle down overnight. 10 ml of a 50 mM NaHCO3 solution at pH 7±0.2 were carefully transferred on the surface of the gel. Samples were collected over 24 hours and copper concentration in the overhead solution was determined by ICP-OES (see section 2.4.1.).
The next data set relates to V. fischeri. Briefly: Minimum bactericidal concentration (liquid incubation, then agar plates). The conditions noted are these: n = 1. The class given is cell-based.
The next data set deals with B. subtilis BR151. The description is as above. The class given is cell-based. The conditions noted are these: n = 1.
A further data set concerns E. coli MC1061. Described as above. The class given is cell-based. The conditions noted are these: n = 1.
The next data set concerns S. aureus RN4220. The description is as above. The conditions noted are these: n = 1. It counts as cell-based.
Data set [4] has as its system Escherichia coli NCTC11100. The experiment in a line: Bacterial growth inhibition assay (turbidimetric, OD 595 nm, HMM medium). The class given is cell-based. The conditions noted are these: E. coli, no copper.
Protocol: Antimicrobial activity was assessed through determination of bacterial growth inhibition in the presence of copper compounds. A turbidimetric assay was used to follow bacterial concentration over time as this is proportional to optical density (OD at 595 nm) in liquid medium, allowing an easy screening of bacterial growth over time. Escherichia coli NCTC11100 and Staphylococcus aureus RN4220 were the tested microorganisms in this assay. Stock bacterial colonies were kept in cultivated in agar plates and on the day before the experiment, one colony was transferred into 10 ml of HMM liquid medium and grown overnight at 30° C. under constant shaking (80 rpm) in an incubator. […] Copper stock solutions (refer to section 2.1) were sequentially diluted in HMM to achieve typical concentrations between 0.8 and 100 ppm Cu in a volume of 0.1 ml. Next, 0.1 ml of bacterial culture was added and incubated with copper at 30° C. under constant agitation (80 rpm). Final copper concentrations in the assay ranged between 0.4 and 50 ppm, and OD was measured every hour for a typical period of 7-8 hours to follow bacterial growth. OD background, i.e. OD absorbance not caused by bacteria, was determined to remove readout interference from copper and broth. Growth inhibition was calculated as follows: […]

Consider `O=[N+]([O-])[O-].[Ag+]` [AgNO3], for which, in data set [1], the “concentration from which cell proliferation decreased” value was at least 10000 ng/mL.
Regarding `O.O.[Cl][Cu][Cl]` [CuCl2, CuCl2.2H2O], the MBC in the data set with P. aeruginosa (4 h incubation), against P. aeruginosa (24 h incubation), in the data set on P. aeruginosa (48 h incubation), against P. aeruginosa (72 h incubation), against P. aeruginosa (96 h incubation) and against V. fischeri (4 h incubation) was 100 ppm Cu each time. Also, the MBC in the data set on V. fischeri (24 h incubation) was 100 ppm Cu; against V. fischeri (48 h incubation), above 100 ppm Cu; against V. fischeri (72 h incubation), above 100 ppm Cu; in the data set on V. fischeri (96 h incubation), above 100 ppm Cu; against B. subtilis BR151 (4 h incubation) it was above 100 ppm Cu; in the data set on B. subtilis BR151 (24 h incubation), above 100 ppm Cu. In addition, the MBC against B. subtilis BR151 (48 h incubation) was above 100 ppm Cu; in the data set with B. subtilis BR151 (72 h incubation), above 100 ppm Cu; with B. subtilis BR151 (96 h incubation), above 100 ppm Cu; against E. coli MC1061 (4 h incubation), 100 ppm Cu; in the data set with E. coli MC1061 (24 h incubation), 50 ppm Cu; with E. coli MC1061 (48 h incubation), 10 ppm Cu. In addition, the MBC in the data set with E. coli MC1061 (72 h incubation) is recorded as 50 ppm Cu; in the data set on E. coli MC1061 (96 h incubation), 50 ppm Cu; against S. aureus RN4220 (4 h incubation), 100 ppm Cu; in the data set with S. aureus RN4220 (24 h incubation), 50 ppm Cu; in the data set with S. aureus RN4220 (48 h incubation) it was 50 ppm Cu; in the data set with S. aureus RN4220 (72 h incubation) it was 50 ppm Cu. Further, the MBC against S. aureus RN4220 (96 h incubation) turned out to be 50 ppm Cu. Further, in data set [1], the “concentration from which cell proliferation decreased” value was at least 50000 ng/mL. In addition, in [2], the “dispersible fraction (maximum)” value is reported as “ca. 10 ppm of Cu”. Further, the “Cu released from HEC matrix” value in data set [3] is given as at most 10 ppm.
As to `O.O.O=C([O-])CN(CCN(CC(=O)[O-])CC(=O)O)CC(=O)O.[Na+].[Na+]` [EDTA, disodium ethylenediaminetetraacetate (EDTA) di-hydrate], the “antibacterial effect of the complexing agent alone (in words)” value in [4] is recorded as “had antibacterial effect”.
